{"source": "patent EP4813381A1", "about": "“PHARMACEUTICAL USE OF GUAIANE SESQUITERPENE DERIVATIVE” (Nanjing University Of Chinese Medicine, priority 2023, dated 2025)", "key": {"[1]": {"system": "MC903-induced atopic dermatitis (AD)", "assay": "MC903-induced ear atopic dermatitis mouse model, Compound 1 ointment: ear thickness and dermatitis score", "format": "in vivo, mice", "settings": "for ear thickness: 1% ointment", "procedure": "Weigh white petrolatum, light liquid paraffin, glyceryl monostearate, ethylparaben, and cetyl alcohol. Heat to 65 °C while stirring until dissolved. Slowly add the dissolved active pharmaceutical ingredient (API) while continuing to stir until uniformly mixed. Set aside. • (2) Aqueous Phase Preparation: […] Slowly add the aqueous phase to the oil phase while maintaining 65 °C, homogenize, and continue stirring for 30 min; • (4) Cooling: Stop heating, continue stirring, gradually reduce to room temperature, cool to form an ointment, and fill containers. […] Dissolve these substances in a small amount of propylene glycol, then place the resulting solution into the aforementioned pre-cooled blank ointment base. […] Skin Lesion Severity Score: […] Statistical analysis was performed on the data."}, "[2]": {"system": "inflammatory cytokines (TNF, IL-6, IL-1)", "assay": "LPS mouse sepsis model: Q-PCR of inflammatory factor mRNA in lung, liver and kidney", "format": "in vivo, C57BL/6 mice", "settings": "sepsis mice, 5 mg/kg", "from_the_text": "Gently pipette to mix the above reagents. The reaction conditions are as follows:\nDetailed information is as follows:"}, "[3]": {"system": "inflammatory factors Tslp, Tnf and Th2-associated factors Il4, Il13, Il31", "assay": "MC903-induced ear atopic dermatitis mouse model, oral Compound 20: Q-PCR of ear", "settings": "ear mRNA, AD mice, 5 mg/kg"}, "[4]": {"system": "MC903-induced atopic dermatitis (AD)", "assay": "MC903-induced AD model on the dorsum of mice, Compound 1 ointment: skin thickness and dermatitis score", "format": "in vivo", "design": "Skin thickness: unit not given here", "procedure": "Weigh white petrolatum, light liquid paraffin, glyceryl monostearate, ethylparaben, and cetyl alcohol. Heat to 65 °C while stirring until dissolved. Slowly add the dissolved active pharmaceutical ingredient (API) while continuing to stir until uniformly mixed. Set aside. • (2) Aqueous Phase Preparation: […] Slowly add the aqueous phase to the oil phase while maintaining 65 °C, homogenize, and continue stirring for 30 min; • (4) Cooling: Stop heating, continue stirring, gradually reduce to room temperature, cool to form an ointment, and fill containers. […] Dissolve these substances in a small amount of propylene glycol, then place the resulting solution into the aforementioned pre-cooled blank ointment base. […] Establishment of the AD Model on the Dorsum of Mice and Drug Administration: […] Except for the Normal group, all other groups underwent AD modeling: 48 hours prior to the experiment, hair on the dorsal neck region was meticulously removed using clippers and depilatory cream. […] Model and control group mice received daily application of blank ointment. Twenty-four hours after completing the 14-day modeling period, photographs of skin lesions were taken, and skin lesion and blood samples were collected. Skin Lesion Severity Score: […] Statistical analysis was performed on the data."}, "[5]": {"system": "MC903-induced atopic dermatitis (AD)", "assay": "MC903-induced ear atopic dermatitis mouse model, oral Compound 20: dermatitis score, ear thickness, serum IgE", "settings": "5 mg/kg"}, "[6]": {"system": "Th2-related factors Il4, Il13, Il31 and inflammatory factors Tslp, Tnf, Il1", "assay": "MC903-induced ear atopic dermatitis mouse model, Compound 1 ointment: Q-PCR of ear", "format": "in vivo", "design": "unit not given here", "settings": "ear mRNA, AD mice, 1% ointment", "procedure": "Except for the Normal group, all other groups underwent AD modeling: 20 µL of MC903 solution (also known as calcipotriol, purchased from Shanghai Yuanye Biotechnology Co., Ltd., used for inducing atopic models) was applied to each mouse's ears once daily for 14 consecutive days to induce the atopic dermatitis model. […] Measure ear thickness changes every 2 days using an electronic caliper before modeling and after treatment initiation."}, "[7]": {"system": "Rat mast cells (RBL-2H3)", "assay": "Mast cell degranulation test (anti-DNP IgE / DNP-HSA)", "format": "cell-based", "settings": "RBL-2H3, IgE+HSA, 4 h, 1 µM", "procedure": "Rat mast cells (RBL-2H3) were cultured routinely in DMEM medium containing 10% FBS within a 5% CO2 incubator. Upon reaching 70-80% confluence, cells were uniformly seeded at a density of 1 × 10^5 cells/mL into 6-well plates (2 mL per well), divided into the following groups: Normal, IgE+HSA, Compound 1 (0.01, 0.1, 1, 10 µM). Mast cells were sensitized with 500 µg/L anti-DNP IgE for 12 h. washed with PBS, and cultured for an additional 12 h with 100 µg/L DNP-HSA. Compound 1 at the specified concentrations was then added. […]"}, "[8]": {"system": "Human keratinocytes (Hacat)", "assay": "Hyaluronic acid and hyaluronidase levels in UVB-irradiated human keratinocytes", "format": "cell-based", "settings": "UVB 90 mJ/cm^2, 24 h, 1 µM", "procedure": "Human keratinocytes (Hacat) were cultured routinely in DMEM medium containing 10% FBS within a 5% CO2 incubator."}}, "data": [{"smiles": "C[C@@H]1C[C@H]2[C@@H]3CCC4=CC(=O)C=C[C@]4(C)[C@@]3(F)[C@@H](O)C[C@]2(C)[C@@]1(O)C(=O)CO", "note": "[Dex, Dexamethasone, reference compound]", "values": [{"measurement": "ear thickness", "setting": "[1]; Day 1", "value": "0.15±0.00", "unit": "mm"}, {"measurement": "ear thickness", "setting": "[1]; Day 3", "value": "0.18±0.00", "unit": "mm"}, {"measurement": "ear thickness", "setting": "[1]; Day 5", "value": "0.22±0.00", "unit": "mm"}, {"measurement": "ear thickness", "setting": "[1]; Day 7", "value": "0.24±0.01", "unit": "mm"}, {"measurement": "ear thickness", "setting": "[1]; Day 8", "value": "0.24±0.00", "unit": "mm"}, {"measurement": "ear thickness", "setting": "[1]; Day 9", "value": "0.24±0.01", "unit": "mm"}, {"measurement": "ear thickness", "setting": "[1]; Day 10", "value": "0.25±0.01", "unit": "mm"}, {"measurement": "ear thickness", "setting": "[1]; Day 11", "value": "0.26±0.01", "unit": "mm"}, {"measurement": "ear thickness", "setting": "[1]; Day 12", "value": "0.28±0.00", "unit": "mm"}, {"measurement": "ear thickness", "setting": "[1]; Day 13", "value": "0.27±0.01", "unit": "mm"}, {"measurement": "ear thickness", "setting": "[1]; Day 14", "value": "0.26±0.01", "unit": "mm"}, {"measurement": "Dermatitis Score", "setting": "[1]; ear, 1% ointment for 7 days, score max 12", "value": "3.50±0.22"}, {"measurement": "Tnf", "setting": "[2]; kidney mRNA (relative, Gapdh)", "value": "6.62±0.68"}, {"measurement": "Tnf", "setting": "[2]; liver mRNA (relative, Gapdh)", "value": "7.04±0.77"}, {"measurement": "Tnf", "setting": "[2]; lung mRNA (relative, Gapdh)", "value": "8.99 ± 0.76"}, {"measurement": "TSLP", "setting": "[3]", "value": "2.13±0.26"}, {"measurement": "Tnf", "setting": "[3]", "value": "2.30±0.36"}, {"measurement": "Dermatitis Score", "setting": "[4]; back, 1% ointment for 7 days, score max 12", "value": "4.17±0.31"}, {"measurement": "Skin thickness", "setting": "[4]; dorsal region, AD mice, 1% ointment", "value": "30.44±0.62"}, {"measurement": "atopic dermatitis score", "setting": "[5]; Day 1", "value": "0.00±0.00"}, {"measurement": "ear thickness", "setting": "[5]; Day 1", "value": "0.20±0.00", "unit": "mm"}, {"measurement": "atopic dermatitis score", "setting": "[5]; Day 3", "value": "0.67±0.21"}, {"measurement": "ear thickness", "setting": "[5]; Day 3", "value": "0.23±0.00", "unit": "mm"}, {"measurement": "atopic dermatitis score", "setting": "[5]; Day 5", "value": "1.50±0.22"}, {"measurement": "ear thickness", "setting": "[5]; Day 5", "value": "0.25±0.00", "unit": "mm"}, {"measurement": "atopic dermatitis score", "setting": "[5]; Day 7", "value": "2.00±0.26"}, {"measurement": "ear thickness", "setting": "[5]; Day 7", "value": "0.26±0.00", "unit": "mm"}, {"measurement": "atopic dermatitis score", "setting": "[5]; Day 8", "value": "2.83±0.31"}, {"measurement": "ear thickness", "setting": "[5]; Day 8", "value": "0.26±0.00", "unit": "mm"}, {"measurement": "atopic dermatitis score", "setting": "[5]; Day 9", "value": "3.00±0.00"}, {"measurement": "ear thickness", "setting": "[5]; Day 9", "value": "0.27±0.00", "unit": "mm"}, {"measurement": "atopic dermatitis score", "setting": "[5]; Day 10", "value": "3.17±0.17"}, {"measurement": "ear thickness", "setting": "[5]; Day 10", "value": "0.28±0.00", "unit": "mm"}, {"measurement": "atopic dermatitis score", "setting": "[5]; Day 11", "value": "3.50±0.22"}, {"measurement": "ear thickness", "setting": "[5]; Day 11", "value": "0.27±0.00", "unit": "mm"}, {"measurement": "atopic dermatitis score", "setting": "[5]; Day 12", "value": "3.00±0.26"}, {"measurement": "ear thickness", "setting": "[5]; Day 12", "value": "0.27±0.00", "unit": "mm"}, {"measurement": "atopic dermatitis score", "setting": "[5]; Day 13", "value": "2.67±0.21"}, {"measurement": "ear thickness", "setting": "[5]; Day 13", "value": "0.27±0.00", "unit": "mm"}, {"measurement": "atopic dermatitis score", "setting": "[5]; Day 14", "value": "2.00±0.26"}, {"measurement": "ear thickness", "setting": "[5]; Day 14", "value": "0.26±0.00", "unit": "mm"}, {"measurement": "IgE", "setting": "[5]; serum, AD mice", "value": "191.65 ± 39.26", "unit": "ng/mL"}, {"measurement": "TSLP", "setting": "[6]", "value": "1.30 ±0.17"}, {"measurement": "Tnf", "setting": "[6]", "value": "1.38 ±0.22"}, {"measurement": "β-Glucosaminidase", "setting": "[7]", "value": "9.78 ± 0.01", "unit": "ng/mL"}, {"measurement": "Hyaluronidase", "setting": "[8]", "value": "87.14 ± 9.63", "unit": "ng/mL"}]}]}
